Experiments:
Format in all cases: cell-based, mouse
[1] = test system: α7 integrin (LacZ reporter in α7βgal+/− myoblasts); assay: Myoblast α7+/LacZ integrin FDG assay (Burkin assay in myoblasts, 96-well); conditions: α7+/LacZ myoblasts, 96-well
[2] = test system: α7 integrin (LacZ reporter in α7+/LacZ myotubes); assay: Myotube α7 integrin FDG assay (Burkin assay in myotubes, 96-well); conditions: myotubes
[3] = test system: β-galactosidase in CMV-LacZ C2C12 myoblasts; assay: CMV-LacZ secondary screen in C2C12 myoblasts (β-Gal stabilizing assay); conditions: CMV-LacZ C2C12 myoblasts
Method in brief: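 β-Gal level was the read-out, measured in a clonal C2C12 line expressing LacZ from a CMV promoter. Dose-response curves used six concentrations, 0.5 μM up to 40 μM, with duplicate points.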

[4] = test system: β-galactosidase in CMV-LacZ C2C12 myotubes; assay: CMV-LacZ secondary screen in C2C12 myotubes (β-Gal stabilizing assay); conditions: C2C12 CMV-LacZ myotubes, fold relative to DMSO
Method in brief: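 A secondary screen identifies compounds that stabilize β-gal independently of the native promoter, using CMV-LacZ C2C12 cells. Curves span 0.5–40 μM at six levels, in duplicate.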

Row | SMILES | Burkin Assay in Myoblasts, signal relative to DMSO ([1]; 0.5 uM) | Burkin Assay in Myoblasts, signal relative to DMSO ([1]; 1 uM) | Burkin Assay in Myoblasts, signal relative to DMSO ([1]; 5 uM) | Burkin Assay in Myoblasts, signal relative to DMSO ([1]; 10 uM) | Burkin Assay in Myoblasts, signal relative to DMSO ([1]; 20 uM) | Burkin Assay in Myoblasts, signal relative to DMSO ([1]; 40 uM) | Burkin Assay in Myotubes, α7 integrin LacZ reporter signal relative to DMSO ([2]; 0.5 uM) | Burkin Assay in Myotubes, α7 integrin LacZ reporter signal relative to DMSO ([2]; 1 uM) | Burkin Assay in Myotubes, α7 integrin LacZ reporter signal relative to DMSO ([2]; 5 uM) | Burkin Assay in Myotubes, α7 integrin LacZ reporter signal relative to DMSO ([2]; 10 uM) | Burkin Assay in Myotubes, α7 integrin LacZ reporter signal relative to DMSO ([2]; 20 uM) | Burkin Assay in Myotubes, α7 integrin LacZ reporter signal relative to DMSO ([2]; 40 uM) | CMV-LACZ in Myoblasts (β-galactosidase activity relative to DMSO) ([3]; 0.5 uM) | CMV-LACZ in Myoblasts (β-galactosidase activity relative to DMSO) ([3]; 1 uM) | CMV-LACZ in Myoblasts (β-galactosidase activity relative to DMSO) ([3]; 5 uM) | CMV-LACZ in Myoblasts (β-galactosidase activity relative to DMSO) ([3]; 10 uM) | CMV-LACZ in Myoblasts (β-galactosidase activity relative to DMSO) ([3]; 20 uM) | CMV-LACZ in Myoblasts (β-galactosidase activity relative to DMSO) ([3]; 40 uM) | CMV-LACZ in Myotubes, signal relative to DMSO ([4]; 0.5 uM) | CMV-LACZ in Myotubes, signal relative to DMSO ([4]; 1 uM) | other results
1 | O=C(Cn1nc(-c2ccc(Cl)cc2)ccc1=O)N1CCC2(CC1)OCCO2 [MLS000689492-01] | 1.073 | 0.908 | 0.94 | 0.9431 | 1.083 | 0.9652 | 1.156 | 1.138 | 0.9311 | 0.9292 | 0.8836 | 0.7544 | 0.9363 | 1.0252 | 1.0863 | 0.8653 | 1.0141 | 1.0026 | 1.0853 | 1.2400 | CMV-LACZ in Myotubes, signal relative to DMSO ([4]; 5 uM): 1.0504; CMV-LACZ in Myotubes, signal relative to DMSO ([4]; 10 uM): 1.0940; CMV-LACZ in Myotubes, signal relative to DMSO ([4]; 20 uM): 1.0444; CMV-LACZ in Myotubes, signal relative to DMSO ([4]; 40 uM): 0.9267
2 | CCCCN(CC)Cc1ccc(CNC(=S)Nc2ccccc2F)o1 [MLS000689562-01] | 1.074 | 1.014 | 1.013 | 1.224 | 0.9537 | 0.8817 | 1.081 | 1.035 | 0.9788 | 1.0159 | 0.7236 | 0.8547 | 0.8453 | 0.7409 | 0.8060 | 1.0858 | 0.9919 | 1.0619 | 0.9474 | 0.8652 | CMV-LACZ in Myotubes, signal relative to DMSO ([4]; 5 uM): 1.0300; CMV-LACZ in Myotubes, signal relative to DMSO ([4]; 10 uM): 0.8105; CMV-LACZ in Myotubes, signal relative to DMSO ([4]; 20 uM): 0.9824; CMV-LACZ in Myotubes, signal relative to DMSO ([4]; 40 uM): 0.9788
3 | COc1cc(/C=C/CN2CCN(Cc3ccc(C)o3)C(CCO)C2)ccc1O (stereo not drawn) [MLS000693704-01] | 1.428 | 1.153 | 1.1427 | 0.9418 | 0.8473 | 0.8019 | 0.9315 | 1.0787 | 1.003 | 0.923 | 0.9587 | 0.8263 | 0.8989 | 1.1157 | 0.9522 | 0.9977 | 0.7996 | 1.0567 | 0.8571 | 0.8695 | CMV-LACZ in Myotubes, signal relative to DMSO ([4]; 5 uM): 1.1170; CMV-LACZ in Myotubes, signal relative to DMSO ([4]; 10 uM): 1.0812; CMV-LACZ in Myotubes, signal relative to DMSO ([4]; 20 uM): 1.1647; CMV-LACZ in Myotubes, signal relative to DMSO ([4]; 40 uM): 1.0600
4 | CCOc1cc(C)c(S(=O)(=O)N2CCCCC2)cc1C [MLS000693795-01] | 1.1137 | 1.242 | 1.02 | 0.9728 | 1.187 | 1.24 | 0.8397 | 0.9171 | 0.9381 | 0.9384 | 1.002 | 0.9513 | 0.9100 | 1.1104 | 0.9554 | 0.9207 | 0.8526 | 0.8730 | 0.9771 | 1.0314 | CMV-LACZ in Myotubes, signal relative to DMSO ([4]; 5 uM): 1.1780; CMV-LACZ in Myotubes, signal relative to DMSO ([4]; 10 uM): 1.0774; CMV-LACZ in Myotubes, signal relative to DMSO ([4]; 20 uM): 1.0453; CMV-LACZ in Myotubes, signal relative to DMSO ([4]; 40 uM): 1.0716
5 | Cc1ccsc1-c1n[nH]c(=S)n1C1CCCCC1 [MLS000698617-01] | 1.008 | 1.003 | 1.06 | 0.9317 | 0.8462 | 0.8966 | 1.197 | 1.075 | 1.139 | 0.945 | 1.092 | 0.7963 | 1.3409 | 0.9852 | 1.1399 | 1.0603 | 1.1670 | 1.0356 | 1.1221 | 1.0842 | CMV-LACZ in Myotubes, signal relative to DMSO ([4]; 5 uM): 0.9014; CMV-LACZ in Myotubes, signal relative to DMSO ([4]; 10 uM): 0.9614; CMV-LACZ in Myotubes, signal relative to DMSO ([4]; 20 uM): 1.0011; CMV-LACZ in Myotubes, signal relative to DMSO ([4]; 40 uM): 1.0111
6 | Nc1ncnc(NCc2ccccc2)c1[N+](=O)[O-] [MLS000698826-01] | 1.019 | 1.008 | 1.246 | 0.9598 | 0.9937 | 1.023 | 1.008 | 0.8718 | 1.08 | 0.9001 | 0.9575 | 0.7844 | 0.9942 | 0.9717 | 0.8824 | 0.9013 | 1.2944 | 1.2519 | 1.2010 | 1.0200 | CMV-LACZ in Myotubes, signal relative to DMSO ([4]; 5 uM): 1.1232; CMV-LACZ in Myotubes, signal relative to DMSO ([4]; 10 uM): 0.9634; CMV-LACZ in Myotubes, signal relative to DMSO ([4]; 20 uM): 1.0505; CMV-LACZ in Myotubes, signal relative to DMSO ([4]; 40 uM): 1.0789

From patent US9980943B2, “Methods of treating muscular dystrophy” (BOARD OF REGENTS OF THE NEVADA SYSTEM OF HIGHER EDUCATION, …, priority 2013, dated 2018)
